Like-named read-outs stand apart in the source and are kept apart here.
How the values were obtained:
Type in all cases: biochemical
CDK9/Cyclin T1 = CDK9/Cyclin T1 (Homo sapiens, UniProt P50750); experiment: CDK9 Enzymatic Activity Assay (Lance Kinase Activity Assay, FRET); conditions: for IC50: Table 5B, class symbols per IC50 [nM] ranges of b581, read-out: CDK9: Selectivity of CDK7 inhibition over CDK9 inhibition
Procedure, shortened: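 CDK9/cyclin T1 phosphorylation of a ULight-MBP peptide was run for 1 h at room temperature in pH 7.5 HEPES buffer with MgCl2, EGTA, DTT and Tween-20. It was followed by 1 h with Eu-anti-phospho-MBP antibody (4 nM) in EDTA detection buffer. TR-FRET loss gave IC50 from 8-point, 1:3 sigmoidal dose-response curves.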

CDK2/CycA = biological target: T1, CDK2/CycA (Homo sapiens, UniProt P24941); experiment: CDK2 Enzymatic Activity Assay (Lance Kinase Activity Assay, FRET); conditions: for IC50: Table 5B, class symbols per IC50 [nM] ranges of b581, read-out: CDK2: Selectivity of CDK7 inhibition over CDK2 inhibition
T1 construct: purchased Proqinase
Experimental: This protocol describes how the Lance Kinase Activity Assay was performed to determine IC50 values of compounds of general formula (I) against CDK/Cyclin complexes. The principle behind this enzymatic assay is based upon the phosphorylation of the Ulight-Peptide Substrat. It is detected by using a specific EU-labeled anti-phospho peptide antibody.
Binding of an inhibitor to the kinase prevents phosphorylation of the Ulight-MBP Substrat, resulting in a loss of FRET.
CDK2 Enzymatic Activity Assay
The compounds of general formula (I) exemplary summarized in Table 1 were diluted from a 10 mM DMSO stock solution 1:10 in a total volume of 15 μl DMSO. This compound predilution was then serial diluted 1:3 over 8 steps in DMSO and briefly spun down. Each compound solution was now diluted 1:20 in Enzymatic Buffer (HEPES: 50 mM, pH: 7.5; MgCl2: 10 mM; EGTA: 1 mM; DTT: 2 mM; Tween-20: 0.01%), mixed thoroughly and spun down.
For positive controls, 2 μl of DMSO working solution were mixed with 6 μl CDK2/CycA/substrate working solution and 2 μl ATP working solution. Positive and negative controls were calculated from at least 8 different wells. The 384 well plates were mixed in a Teleshaker plate mixer (Beckman Coulter, Brea, Calif., USA) at 2000 rpm for 40 sec, and incubated for 1 h at room temperature before addition of 10 μl LANCE Detection Buffer (EDTA: […]; Eu-Anti-P-MBP: 4 nM) per well. Plates were mixed in a Teleshaker plate mixer (Beckman Coulter, Brea, Calif., USA) at 2000 rpm for 40 sec, followed by incubation with Detection Buffer for 1 h, and reading. […] IC50 values were determined from the sigmoidal dose response curves with the software Quattro Workflow (Quattro GmbH, Munich, Germany).

CDK7/CycH/Mat1 = CDK7/CycH/Mat1 (Homo sapiens, UniProt P50613); experiment: CDK7 Enzymatic Activity Assay (Lance Kinase Activity Assay, FRET)
Chain of CDK7/CycH/Mat1 (P50613 whole entry): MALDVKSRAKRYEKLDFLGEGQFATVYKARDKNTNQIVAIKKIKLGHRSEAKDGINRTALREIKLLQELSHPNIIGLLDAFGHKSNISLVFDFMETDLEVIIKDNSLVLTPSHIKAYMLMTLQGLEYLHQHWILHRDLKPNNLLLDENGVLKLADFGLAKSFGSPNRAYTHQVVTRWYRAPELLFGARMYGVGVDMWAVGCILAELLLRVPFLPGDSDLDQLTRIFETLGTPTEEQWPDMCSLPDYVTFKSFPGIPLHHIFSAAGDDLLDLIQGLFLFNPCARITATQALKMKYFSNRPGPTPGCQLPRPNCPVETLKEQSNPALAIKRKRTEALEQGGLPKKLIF
Procedure, shortened: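 Ulight-MBP peptide phosphorylation by CDK7/CycH/Mat1 in HEPES 50 mM pH 7.5, MgCl2, EGTA, DTT, Tween-20; 1 h at room temperature, then EDTA stop with Eu-anti-phospho-MBP antibody for 1 h and TR-FRET read. Compounds in 8-point 1:3 DMSO series; IC50 from sigmoidal dose-response fit.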

[1] = CDK7/CycH/Mat1, 25 μM ATP final, class ranges, read-out: CDK7: IC50 [nM] for CDK7 inhibition

Chain of CDK9/Cyclin T1 (P50750 whole entry): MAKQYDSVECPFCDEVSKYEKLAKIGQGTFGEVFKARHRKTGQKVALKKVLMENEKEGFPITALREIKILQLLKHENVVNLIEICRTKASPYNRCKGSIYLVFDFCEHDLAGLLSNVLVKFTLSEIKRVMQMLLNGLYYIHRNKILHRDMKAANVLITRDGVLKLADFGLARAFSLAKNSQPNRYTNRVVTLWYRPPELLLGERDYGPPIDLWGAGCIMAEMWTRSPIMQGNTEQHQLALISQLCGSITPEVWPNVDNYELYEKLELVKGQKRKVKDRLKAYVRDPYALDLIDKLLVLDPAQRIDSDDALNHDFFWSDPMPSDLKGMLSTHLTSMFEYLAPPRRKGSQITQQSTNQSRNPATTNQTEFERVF
Chain of CDK9/Cyclin T1 (O60563 whole entry partner): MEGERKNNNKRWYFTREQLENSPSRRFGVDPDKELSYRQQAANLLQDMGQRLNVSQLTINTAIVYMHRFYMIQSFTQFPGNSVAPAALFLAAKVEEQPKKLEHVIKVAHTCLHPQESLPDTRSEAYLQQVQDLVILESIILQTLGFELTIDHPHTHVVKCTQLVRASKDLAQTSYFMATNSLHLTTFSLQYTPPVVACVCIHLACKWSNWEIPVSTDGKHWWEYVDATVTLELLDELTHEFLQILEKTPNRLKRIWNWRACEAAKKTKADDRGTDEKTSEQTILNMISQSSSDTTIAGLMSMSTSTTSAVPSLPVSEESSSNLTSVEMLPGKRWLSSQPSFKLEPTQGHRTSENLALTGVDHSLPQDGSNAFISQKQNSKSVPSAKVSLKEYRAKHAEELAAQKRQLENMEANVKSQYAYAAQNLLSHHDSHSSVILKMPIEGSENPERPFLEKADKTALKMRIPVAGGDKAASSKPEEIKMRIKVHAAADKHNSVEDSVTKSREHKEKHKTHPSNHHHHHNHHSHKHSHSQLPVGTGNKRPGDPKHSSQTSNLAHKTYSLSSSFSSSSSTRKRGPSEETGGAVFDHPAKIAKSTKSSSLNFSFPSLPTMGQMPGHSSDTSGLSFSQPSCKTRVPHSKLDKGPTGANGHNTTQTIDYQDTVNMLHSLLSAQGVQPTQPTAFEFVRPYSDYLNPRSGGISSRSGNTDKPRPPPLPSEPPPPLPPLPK

| SMILES | IC50 (CDK9/Cyclin T1) [nM] | IC50 (CDK2/CycA) [nM] | IC50 (CDK7/CycH/Mat1; [1]) [nM] | Selectivity CDK7 over CDK9 (CDK9/Cyclin T1; Table 6) [fold] | Selectivity CDK7 over CDK2 (CDK2/CycA; Table 6) [fold] | IC50 (CDK7/CycH/Mat1; Table 6, read-out: IC50 CDK7) [nM] |
| --- | --- | --- | --- | --- | --- | --- |
| CC(C)c1cnn2c(NCc3ccc(F)cc3-n3cccn3)nc(O[C@@H]3CCCNC3)nc12 [(VII-43), (R)-N-(4-fluoro-2-(1H-pyrazol-1-yl)benzyl)-8-isopropyl-2-(piperidin-3-yloxy)pyrazolo[1,5-a][1,3,5]triazin-4-amine] | 50 to 500 | < 50 | < 5 | – | – | – |
| CC(C)c1cnn2c(NCc3c(F)cccc3-n3cccn3)nc(O[C@@H]3CCCNC3)nc12 [(VII-44), (R)-N-(2-fluoro-6-(1H-pyrazol-1-yl)benzyl)-8-isopropyl-2-(piperidin-3-yloxy)pyrazolo[1,5-a][1,3,5]triazin-4-amine] | > 2500 | 50 to 500 | < 5 | – | – | – |
| CC(C)c1cnn2c(NCc3ccccc3-n3cc(Cl)cn3)nc(O[C@@H]3CCCNC3)nc12 [(VII-52), (R)-N-(2-(4-chloro-1H-pyrazol-1-yl)benzyl)-8-isopropyl-2-(piperidin-3-yloxy)pyrazolo[1,5-a][1,3,5]triazin-4-amine] | 50 to 500 | 50 to 500 | < 5 | – | – | – |
| CC(C)c1cnn2c(NCc3ccccc3F)nc(OC3CCN(C)CC3)nc12 [(VII-56), N-(2-fluorobenzyl)-8-isopropyl-2-((1-methylpiperidin-4-yl)oxy)pyrazolo[1,5-a][1,3,5]triazin-4-amine] | 50 to 500 | 500 to 2500 | 5 to 10 | – | – | – |
| CC(C)c1cnn2c(NCc3ccccc3C(F)(F)F)nc(OC3CCN(C)CC3)nc12 [(VII-58), 8-isopropyl-2-((1-methylpiperidin-4-yl)oxy)-N-(2-(trifluoromethyl)benzyl)pyrazolo[1,5-a][1,3,5]triazin-4-amine] | > 2500 | < 50 | 10 to 25 | – | – | – |
| CC(C)c1cnn2c(NCc3ccccc3-n3ccnc3)nc(OC3CCN(C)CC3)nc12 [(VII-59), N-(2-(1H-imidazol-1-yl)benzyl)-8-isopropyl-2-((1-methylpiperidin-4-yl)oxy)pyrazolo[1,5-a][1,3,5]triazin-4-amine] | > 2500 | – | < 5 | 9140 | 3926 | < 5 |
| CC(C)c1cnn2c(NCc3cccc4ccccc34)nc(OC3CCN(C)CC3)nc12 [(VII-61), 8-isopropyl-2-((1-methylpiperidin-4-yl)oxy)-N-(naphthalen-1-ylmethyl)pyrazolo[1,5-a][1,3,5]triazin-4-amine] | 50 to 500 | 500 to 2500 | 5 to 10 | – | – | – |
| CC(C)c1cnn2c(NCc3ccccc3-c3cccs3)nc(OC3CCN(C)CC3)nc12 [(VII-65), 8-isopropyl-2-((1-methylpiperidin-4-yl)oxy)-N-(2-(thiophen-2-yl)benzyl)pyrazolo[1,5-a][1,3,5]triazin-4-amine] | > 2500 | 50 to 500 | < 5 | – | – | – |
| CC(C)c1cnn2c(NCc3ccccc3Cl)nc(OC3CCN(C)CC3)nc12 [(VII-68), N-(2-chlorobenzyl)-8-isopropyl-2-((1-methylpiperidin-4-yl)oxy)pyrazolo[1,5-a][1,3,5]triazin-4-amine] | 50 to 500 | 50 to 500 | < 5 | – | – | – |
| COc1ccccc1CNc1nc(OC2CCN(C)CC2)nc2c(C(C)C)cnn12 [(VII-71), 8-isopropyl-N-(2-methoxybenzyl)-2-((1-methylpiperidin-4-yl)oxy)pyrazolo[1,5-a][1,3,5]triazin-4-amine] | 50 to 500 | 50 to 500 | < 5 | – | – | – |
| CC(C)c1cnn2c(NCc3ccccc3OC(F)F)nc(OC3CCN(C)CC3)nc12 [(VII-72), N-(2-(difluoromethoxy)benzyl)-8-isopropyl-2-((1-methylpiperidin-4-yl)oxy)pyrazolo[1,5-a][1,3,5]triazin-4-amine] | 50 to 500 | 50 to 500 | < 5 | – | – | – |
| CC(C)c1cnn2c(NCc3ccccc3-n3cccn3)nc(OC3CCN(C)CC3)nc12 [(VII-73), N-(2-(1H-pyrazol-1-yl)benzyl)-8-isopropyl-2-((1-methylpiperidin-4-yl)oxy)pyrazolo[1,5-a][1,3,5]triazin-4-amine] | > 2500 | 500 to 2500 | < 5 | – | – | – |
| CC(C)c1cnn2c(NCc3ccccc3-n3cncn3)nc(OC3CCN(C)CC3)nc12 [(VII-74), N-(2-(1H-1,2,4-triazol-1-yl)benzyl)-8-isopropyl-2-((1-methylpiperidin-4-yl)oxy)pyrazolo[1,5-a][1,3,5]triazin-4-amine] | > 2500 | 50 to 500 | < 5 | – | – | – |
| CC(C)c1cnn2c(NCc3ccccc3CN3CCCC3=O)nc(O[C@@H]3CCCNC3)nc12 [(VII-092), (R)-1-(2-(((8-isopropyl-2-(piperidin-3-yloxy)pyrazolo[1,5-a][1,3,5]triazin-4-yl)amino)methyl)benzyl)pyrrolidin-2-one] | > 2500 | > 2500 | 10 to 25 | – | – | – |
| Cc1ccc(CNc2nc(O[C@@H]3CCCNC3)nc3c(C(C)C)cnn23)c(OC2CCOC2)c1 (stereo partly drawn) [(VII-093), 8-isopropyl-N-(4-methyl-2-((tetrahydrofuran-3-yl)oxy)benzyl)-2-((R)-piperidin-3-yloxy)pyrazolo[1,5-a][1,3,5]triazin-4-amine] | > 2500 | > 2500 | > 25 | – | – | – |
| CC(C)c1cnn2c(NCc3ccccc3OC3CCCC3)nc(O[C@@H]3CCCNC3)nc12 [(VII-095), (R)-N-(2-(cyclopentyloxy)benzyl)-8-isopropyl-2-(piperidin-3-yloxy)pyrazolo[1,5-a][1,3,5]triazin-4-amine] | > 2500 | > 2500 | > 25 | – | – | – |
| CC(C)c1cnn2c(NCc3ccccc3C(N)=O)nc(O[C@@H]3CCCNC3)nc12 [(VII-096), (R)-2-(((8-isopropyl-2-(piperidin-3-yloxy)pyrazolo[1,5-a][1,3,5]triazin-4-yl)amino)methyl)benzamide] | 500 to 2500 | 50 to 500 | < 5 | – | – | – |
| CC(C)c1cnn2c(NCc3ccccc3OC3CCC3)nc(O[C@@H]3CCCNC3)nc12 [(VII-097), (R)-N-(2-cyclobutoxybenzyl)-8-isopropyl-2-(piperidin-3-yloxy)pyrazolo[1,5-a][1,3,5]triazin-4-amine] | > 2500 | > 2500 | > 25 | – | – | – |
| CC(C)c1cnn2c(NCc3ccccc3Oc3ccccn3)nc(O[C@@H]3CCCNC3)nc12 [(VII-098), (R)-8-isopropyl-2-(piperidin-3-yloxy)-N-(2-(pyridin-2-yloxy)benzyl)pyrazolo[1,5-a][1,3,5]triazin-4-amine] | > 2500 | 500 to 2500 | 10 to 25 | – | – | – |
| CC(C)c1cnn2c(NCc3ccccc3S(=O)(=O)N3CCOCC3)nc(O[C@@H]3CCCNC3)nc12 [(VII-099), (R)-8-isopropyl-N-(2-(morpholinosulfonyl)benzyl)-2-(piperidin-3-yloxy)pyrazolo[1,5-a][1,3,5]triazin-4-amine] | > 2500 | 500 to 2500 | < 5 | – | – | – |
| CC(C)c1cnn2c(NCc3ccccc3Br)nc(O[C@@H]3CCCNC3)nc12 [(VII-100), (R)-N-(2-bromobenzyl)-8-isopropyl-2-(piperidin-3-yloxy)pyrazolo[1,5-a][1,3,5]triazin-4-amine] | 50 to 500 | 50 to 500 | < 5 | – | – | – |
| CC(C)c1cnn2c(NCc3cccc(Cl)c3Cl)nc(O[C@@H]3CCCNC3)nc12 [(VII-103), (R)-N-(2,3-dichlorobenzyl)-8-isopropyl-2-(piperidin-3-yloxy)pyrazolo[1,5-a][1,3,5]triazin-4-amine] | 50 to 500 | 50 to 500 | 10 to 25 | – | – | – |

Reference: patent US9567345B2, “Pharmaceutically active pyrazolo-triazine derivatives” (LEAD DISCOVERY CENTER GMBH, priority 2012, dated 2017)
